target: T1, Caspase-3 (Homo sapiens, UniProt P42574); experiment: Inhibitory concentration required against human Caspase-3; details: not given
T1 sequence (P42574 whole entry): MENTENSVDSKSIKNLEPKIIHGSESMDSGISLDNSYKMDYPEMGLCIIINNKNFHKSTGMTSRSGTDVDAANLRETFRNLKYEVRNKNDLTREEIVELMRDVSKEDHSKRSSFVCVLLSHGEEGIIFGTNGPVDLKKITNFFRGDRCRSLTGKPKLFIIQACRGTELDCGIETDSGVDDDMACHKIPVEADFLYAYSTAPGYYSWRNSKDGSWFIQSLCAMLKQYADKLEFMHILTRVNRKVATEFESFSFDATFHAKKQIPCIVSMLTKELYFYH

IC50 | Structure (SMILES)
> 200 µM | O=C[C@H](CC(=O)O)NC(=O)c1ccncc1

tested on: NT2; experiment: Inhibitory concentration required against NT2 cells; details: Homo sapiens

Structure (SMILES) | IC50
CN(C1CC1)S(=O)(=O)c1cncc(C(=O)N[C@@H](CC(=O)O)C(=O)CSCc2ccc(F)cc2)c1 | 22 µM
CCCN(CCC)S(=O)(=O)c1cncc(C(=O)N[C@@H](CC(=O)O)C(=O)CSCc2ccc(F)cc2)c1 | 25 µM
CC(C)CN(CC(C)C)C(=O)c1cncc(C(=O)N[C@@H](CC(=O)O)C(=O)CSCc2ccc(F)cc2)c1 | 39 µM
CC(=O)N[C@@H](CC(=O)O)C(=O)N[C@@H](CCC(=O)O)C(=O)N[C@H](C(=O)N[C@H](C=O)CC(=O)O)C(C)C | > 100 µM
O=C(O)C[C@H](NC(=O)c1cncc(S(=O)(=O)NCc2ccccc2)c1)C(=O)CSCc1ccc(F)cc1 | 59 µM
CCN(C(=O)c1cncc(C(=O)N[C@@H](CC(=O)O)C(=O)CSCc2ccc(F)cc2)c1)C(C)C | 16 µM
CCN(CC)C(=O)c1cncc(C(=O)N[C@@H](CC(=O)O)C(=O)CSCc2ccc(F)cc2)c1 | > 100 µM
CCCN(CCC)C(=O)c1cncc(C(=O)N[C@@H](CC(=O)O)C(=O)CSCc2ccc(F)cc2)c1 | > 100 µM
CCN(CC)S(=O)(=O)c1cncc(C(=O)N[C@@H](CC(=O)O)C(=O)CSCc2ccc(F)cc2)c1 | 12 µM
O=C(O)C[C@H](NC(=O)c1cncc(S(=O)(=O)NC2CC2)c1)C(=O)COC(=O)c1cccc2ccccc12 | 1.3 µM

Next, values leading:

IC50 | Structure (SMILES)
4.3 µM | O=C(O)C[C@H](NC(=O)c1cncc(S(=O)(=O)NC2CC2)c1)C(=O)Oc1ccccc1
57 µM | O=C[C@H](CC(=O)O)NC(=O)c1cncc(S(=O)(=O)NC2CC2)c1
21 µM | CN(C)S(=O)(=O)c1cncc(C(=O)N[C@@H](CC(=O)O)C(=O)CSCc2ccc(F)cc2)c1
8 µM | O=C(O)C[C@H](NC(=O)c1cncc(S(=O)(=O)NC2CC2)c1)C(=O)CSCc1ccc(F)cc1
53 µM | O=C(O)C[C@H](NC(=O)c1cncc(S(=O)(=O)NC2CC2)c1)C(=O)CNCc1c(F)cccc1F
